Reference: the CheMixHub viscosity set

Test: xn = mol fraction of the nth substance listed

Cc1ccccc1 + CO
Settings | viscosity [mPa·s]
293.15 K, 101 kPa, x1 = 0.0405 | 0.5903
293.15 K, 101 kPa, x1 = 0.0868 | 0.5951
293.15 K, 101 kPa, x1 = 0.1401 | 0.6009
293.15 K, 101 kPa, x1 = 0.2022 | 0.6067
293.15 K, 101 kPa, x1 = 0.2755 | 0.6121
293.15 K, 101 kPa, x1 = 0.3632 | 0.6167
293.15 K, 101 kPa, x1 = 0.4701 | 0.6194
293.15 K, 101 kPa, x1 = 0.6033 | 0.6184
293.15 K, 101 kPa, x1 = 0.7739 | 0.6098
293.15 K, 101 kPa, x2 = 0.2 | 0.582
293.15 K, 101 kPa, x2 = 0.4 | 0.601
293.15 K, 101 kPa, x2 = 0.6 | 0.62
293.15 K, 101 kPa, x2 = 0.8 | 0.623
293.16 K, 101 kPa, x2 = 0.7465 | 0.6073
293.16 K, 101 kPa, x2 = 0.8178 | 0.6149
293.16 K, 101 kPa, x2 = 0.9632 | 0.6049
298.15 K, 101 kPa, x1 = 0.0405 | 0.552
298.15 K, 101 kPa, x1 = 0.0868 | 0.5572
298.15 K, 101 kPa, x1 = 0.1401 | 0.5628
298.15 K, 101 kPa, x1 = 0.2022 | 0.5679
298.15 K, 101 kPa, x1 = 0.2755 | 0.573
298.15 K, 101 kPa, x1 = 0.3632 | 0.5779
298.15 K, 101 kPa, x1 = 0.4701 | 0.5803
298.15 K, 101 kPa, x1 = 0.6033 | 0.5796
298.15 K, 101 kPa, x1 = 0.7739 | 0.5809
298.15 K, 101 kPa, x2 = 0.0499 | 0.551
298.15 K, 101 kPa, x2 = 0.0998 | 0.547
298.15 K, 101 kPa, x2 = 0.1993 | 0.54
298.15 K, 101 kPa, x2 = 0.2269 | 0.5998
298.15 K, 101 kPa, x2 = 0.2998 | 0.541
298.15 K, 101 kPa, x2 = 0.3977 | 0.6168
298.15 K, 101 kPa, x2 = 0.4007 | 0.55
298.15 K, 101 kPa, x2 = 0.4998 | 0.557
298.15 K, 101 kPa, x2 = 0.5309 | 0.6284
298.15 K, 101 kPa, x2 = 0.6002 | 0.562
298.15 K, 101 kPa, x2 = 0.6377 | 0.6259
298.15 K, 101 kPa, x2 = 0.7 | 0.572
298.15 K, 101 kPa, x2 = 0.7252 | 0.6143
298.15 K, 101 kPa, x2 = 0.7983 | 0.599
298.15 K, 101 kPa, x2 = 0.8 | 0.569
298.15 K, 101 kPa, x2 = 0.8606 | 0.5847
298.15 K, 101 kPa, x2 = 0.9 | 0.561
298.15 K, 101 kPa, x2 = 0.9136 | 0.5831
298.15 K, 101 kPa, x2 = 0.9501 | 0.555
298.15 K, 101 kPa, x2 = 0.9597 | 0.5642
298.16 K, 101 kPa, x2 = 0.4032 | 0.5406
298.16 K, 101 kPa, x2 = 0.7442 | 0.5644
298.16 K, 101 kPa, x2 = 0.9625 | 0.5599
303 K, 101 kPa, x1 = 0.1006 | 0.549
303 K, 101 kPa, x1 = 0.2012 | 0.599
303 K, 101 kPa, x1 = 0.3009 | 0.585
303 K, 101 kPa, x1 = 0.3981 | 0.578
303 K, 101 kPa, x1 = 0.5016 | 0.573
303 K, 101 kPa, x1 = 0.6052 | 0.566
303 K, 101 kPa, x1 = 0.7001 | 0.562
303 K, 101 kPa, x1 = 0.8095 | 0.559
303 K, 101 kPa, x1 = 0.9011 | 0.537
303.15 K, 101.33 kPa, x1 = 0.0724 | 0.588
303.15 K, 101.33 kPa, x1 = 0.0912 | 0.531
303.15 K, 101.33 kPa, x1 = 0.1636 | 0.588
303.15 K, 101.33 kPa, x1 = 0.2105 | 0.539
303.15 K, 101.33 kPa, x1 = 0.2773 | 0.542
303.15 K, 101.33 kPa, x1 = 0.3517 | 0.569
303.15 K, 101.33 kPa, x1 = 0.3723 | 0.54
303.15 K, 101.33 kPa, x1 = 0.4963 | 0.529
303.15 K, 101.33 kPa, x1 = 0.5095 | 0.544
303.15 K, 101.33 kPa, x1 = 0.6126 | 0.539
303.15 K, 101.33 kPa, x1 = 0.6944 | 0.515
303.15 K, 101.33 kPa, x1 = 0.7321 | 0.532
303.15 K, 101.33 kPa, x1 = 0.8307 | 0.513
303.15 K, 101.33 kPa, x1 = 0.8541 | 0.527
303.15 K, 101.33 kPa, x1 = 0.888 | 0.516
303.15 K, 101.33 kPa, x1 = 0.9511 | 0.52
308.15 K, 101 kPa, x1 = 0.0405 | 0.4855
308.15 K, 101 kPa, x1 = 0.0868 | 0.4908
308.15 K, 101 kPa, x1 = 0.1401 | 0.4965
308.15 K, 101 kPa, x1 = 0.2022 | 0.5022
308.15 K, 101 kPa, x1 = 0.2755 | 0.5079
308.15 K, 101 kPa, x1 = 0.3632 | 0.5132
308.15 K, 101 kPa, x1 = 0.4701 | 0.517
308.15 K, 101 kPa, x1 = 0.6033 | 0.5188
308.15 K, 101 kPa, x1 = 0.7739 | 0.5021
308.15 K, 101.33 kPa, x1 = 0.0912 | 0.495
308.15 K, 101.33 kPa, x1 = 0.2105 | 0.502
308.15 K, 101.33 kPa, x1 = 0.2773 | 0.504
308.15 K, 101.33 kPa, x1 = 0.3723 | 0.502
308.15 K, 101.33 kPa, x1 = 0.4963 | 0.494
308.15 K, 101.33 kPa, x1 = 0.6944 | 0.482
308.15 K, 101.33 kPa, x1 = 0.8307 | 0.481
308.15 K, 101.33 kPa, x1 = 0.888 | 0.483
308.15 K, 101.33 kPa, x1 = 0.9511 | 0.488
313.15 K, 101.33 kPa, x1 = 0.0724 | 0.5
313.15 K, 101.33 kPa, x1 = 0.1636 | 0.503
313.15 K, 101.33 kPa, x1 = 0.3517 | 0.487
313.15 K, 101.33 kPa, x1 = 0.5095 | 0.485
313.15 K, 101.33 kPa, x1 = 0.6126 | 0.48
313.15 K, 101.33 kPa, x1 = 0.7321 | 0.475
313.15 K, 101.33 kPa, x1 = 0.8541 | 0.464
318.15 K, 101 kPa, x1 = 0.0405 | 0.4298
318.15 K, 101 kPa, x1 = 0.0868 | 0.4372
318.15 K, 101 kPa, x1 = 0.1401 | 0.4452
318.15 K, 101 kPa, x1 = 0.2022 | 0.4538
318.15 K, 101 kPa, x1 = 0.2755 | 0.4629
318.15 K, 101 kPa, x1 = 0.3632 | 0.4726
318.15 K, 101 kPa, x1 = 0.4701 | 0.4817
318.15 K, 101 kPa, x1 = 0.6033 | 0.4892
318.15 K, 101 kPa, x1 = 0.7739 | 0.4809
323.15 K, 101.33 kPa, x1 = 0.0724 | 0.433
323.15 K, 101.33 kPa, x1 = 0.1636 | 0.441
323.15 K, 101.33 kPa, x1 = 0.3517 | 0.407
323.15 K, 101.33 kPa, x1 = 0.5095 | 0.42
323.15 K, 101.33 kPa, x1 = 0.6126 | 0.413
323.15 K, 101.33 kPa, x1 = 0.7321 | 0.41
323.15 K, 101.33 kPa, x1 = 0.8541 | 0.408
